# Experimental data: patent publication US4835168A, “Thiadiazole antiviral agents” (Eli Lilly and Company, priority 1988, dated 1989)
# Entries after “also recorded” stand apart in the source; their conditions may differ. Where a name gives a salt, the structure may show the parent alone. Read-outs that look alike come from different tables or passages of the source.
# Legend:
# [1] = Malinoski et al., Virology 1981; cited from earlier work
# [2] = system: influenza A1-Ann Arbor strain; test: in vivo mouse influenza test, survival index, relative activity (Table I); conditions: CD-1 mice, 10 days
# [3] = system: influenza Al-Ann Arbor; test: plaque-reduction study in MDCK cells (Table III); assay type: cell-based; conditions: for IC50: MDCK, read-out: IC50, inhibition of plaque formation by 50 percent
# [4] = system: influenza B-Great Lake; test: plaque-reduction study in MDCK cells (Table III); assay type: cell-based; conditions: for IC50: MDCK, read-out: IC50, inhibition of plaque formation by 50 percent
# [5] = system: RSV; test: in vivo antiviral test in hamster (Table IV); conditions: reduction in nasal washing virus titer vs control
# Protocol: (§1) As previously mentioned, in vivo antiviral test results may vary due to numerous factors. […] The compounds of Examples 1 and 7 were tested against several different viruses using different kinds of test animals and different modes of oral and topical administration. In Table IV below, Column 1 indicated the test compound, while Column 2 discloses the virus the compound was employed against. Columns 3 and 4 describe the test animal and the method of administration, respectively. Finally, Column 5 discloses whether or not antiviral activity was shown.
# [6] = system: HSV I; test: in vivo antiviral test in mouse (Table IV); conditions: drinking water, more survivors than control
# Protocol: as §1
# [7] = system: Herpes I; test: plaque-reduction test (Table V); assay type: cell-based; conditions: BSCl cells, read-out: IC50, inhibition of plaque formation by 50 percent
# [8] = system: Parainfluenza (type 3); test: plaque-reduction test (Table V); assay type: cell-based; conditions: read-out: IC50, inhibition of plaque formation by 50 percent
# [9] = system: Semliki Forest; test: plaque-reduction test (Table V); assay type: cell-based; conditions: BSCl cells, read-out: IC50, inhibition of plaque formation by 50 percent
# [10] = system: Vaccinia; test: microbe, parasite or virus in culture; assay type: cell-based; conditions: Orthopoxvirus vaccinia, read-out: IC50, inhibition of plaque formation by 50 percent
# [11] = in vivo conversion to salt form of the compound of Example 6
# [12] = system: influenza A-NWS; test: plaque-reduction study in MDCK cells (Table III); assay type: cell-based; conditions: values marked *: one discordant test >50 not incorporated; for IC50: MDCK, read-out: IC50, inhibition of plaque formation by 50 percent
# [13] = system: HSV II; test: in vivo antiviral test in guinea pig (Table IV); conditions: topical cream, fewer lesions than control
# Protocol: as §1
# [14] = system: Herpes II; test: plaque-reduction test (Table V); assay type: cell-based; conditions: BSCl cells, read-out: IC50, inhibition of plaque formation by 50 percent
# [15] = system: HIV; test: preliminary testing against retroviruses
# [16] = system: Friend Leukemia; test: preliminary testing against retroviruses
# [17] = system: Vesicular Stomatitus Virus; test: in vitro activity against Vesicular Stomatitus Virus; assay type: cell-based
# [18] = system: influenza A-Brazil; test: survival of infected mice, oral in diet (Table II); assay type: in vivo; conditions: control 10/28
# Source text: (§2) Again, due to the nature of in vivo antiviral tests the in vivo antiviral influenza activity of the compounds can vary. […] A typical test would run for at least ten days.
# [19] = system: influenza A-Texas; test: survival of infected mice, oral in diet (Table II); assay type: in vivo; conditions: control 8/36
# Source text: as §2
# [20] = system: influenza Al-Ann Arbor; test: survival of infected mice, oral in diet (Table II); assay type: in vivo; conditions: control 0/50
# Source text: as §2
# [21] = system: influenza B-Great Lake; test: survival of infected mice, oral in diet (Table II); assay type: in vivo; conditions: control 3/36
# Source text: as §2
# [22] = system: influenza B-Hong Kong; test: survival of infected mice, oral in diet (Table II); assay type: in vivo; conditions: control 4/50
# Source text: as §2
# [23] = system: influenza B-Maryland; test: survival of infected mice, oral in diet (Table II); assay type: in vivo; conditions: control 14/50
# Source text: as §2
# [24] = system: influenza B-Taiwan; test: survival of infected mice, oral in diet (Table II); assay type: in vivo; conditions: control 1/36
# Source text: as §2
compound,measurement,setting,value
"Nc1nncs1 [2-amino-1,3,4-thiadiazole]",antiviral activity,[1],certain antiviral activity
"CSC(N)=Nc1nncs1 [Example 1, N^1-1,3,4-thiadiazol-2-ylcarbamimidothioic acid, methyl ester]","RA (relative activity index from P, percent of maximum survival index)",[2],5 (80-100% = 5 (very active))
same,IC50,[3],0.68 µg/mL
same,IC50,[4],16.3 µg/mL
same,antiviral activity shown (Result),[5]; drinking water,active
same,antiviral activity shown (Result),[6],active
same,IC50,[7],9.6 µg/mL
same,IC50,[8]; BSCl cells,4.5 µg/mL
same,IC50,[8]; HELA cells,> 25 µg/mL
same,IC50,[9],43 µg/mL
same,IC50,[10],15.8 µg/mL
same,conversion in vivo to a salt form of the compound of Example 6,[11],converted to a salt form of the compound of Example 6; also recorded: converted in vivo to a salt form
"CCSC(N)=Nc1nncs1 [Example 2, N^1-1,3,4-thiadiazol-2-ylcarbamimidothioic acid, ethyl ester]","RA (relative activity index from P, percent of maximum survival index)",[2],5 (80-100% = 5 (very active))
same,IC50,[12],18.9 µg/mL
same,IC50,[4],9.5 µg/mL
"CCCCSC(N)=Nc1nncs1 [Example 3, N^1-1,3,4-thiadiazol-2-ylcarbamimidothioic acid, n-butyl ester]","RA (relative activity index from P, percent of maximum survival index)",[2],5 (80-100% = 5 (very active))
same,IC50,[12],21.3 µg/mL
same,IC50,[4],> 50 µg/mL
"NC(=Nc1nncs1)SCc1ccccn1 [Example 4, N^1-1,3,4-thiadiazol-2-ylcarbamimidothioic acid, 2-pyridinylmethyl ester, hydrochloride]","RA (relative activity index from P, percent of maximum survival index)",[2],2.5
same,IC50,[12],> 50 µg/mL
same,IC50,[4],> 50 µg/mL
"N#CCSC(N)=Nc1nncs1 [Example 5, N^1-1,3,4-thiadiazol-2-ylcarbamimidothioic acid, cyanomethyl ester]","RA (relative activity index from P, percent of maximum survival index)",[2],2.5
"N#CNc1nncs1 [Example 6, 1,3,4-Thiadiazole-2-cyanamide]",IC50,[12],0.78 µg/mL
same,IC50,[3],0.85 µg/mL
same,"IC50, inhibition of plaque formation by 50 percent",[4],2.25 MCG/ML
"N#CNc1nncs1 [Example 7, 1,3,4-Thiadiazole-2-cyanamide Sodium salt]","IC50, inhibition of plaque formation by 50 percent",[12]; Sodium salt,0.58 MCG/ML
same,"IC50, inhibition of plaque formation by 50 percent",[3]; Sodium salt,0.82 MCG/ML
same,"IC50, inhibition of plaque formation by 50 percent",[4]; Sodium salt,1.00 MCG/ML
same,antiviral activity shown (Result),[5]; food,active
same,antiviral activity shown (Result),[6],active
same,antiviral activity shown (Result),[13],active
same,IC50,[7],2.95 µg/mL
same,IC50,[8]; BSCl cells,0.14 µg/mL
same,IC50,[8]; HELA cells,0.72 µg/mL
same,IC50,[14],0.19 µg/mL
same,IC50,[9],< 0.23 µg/mL
same,IC50,[10]; Vero,0.29 µg/mL
same,IC50,[10],< 0.31 µg/mL
same,activity against retroviruses,[15],failed to demonstrate conclusive activity
same,activity against retroviruses,[16],failed to demonstrate conclusive activity
same,in vitro activity against Vesicular Stomatitus Virus,[17],does not
"NC(N)=Nc1nncs1 [Example 8, 1,3,4-Thiadiazole-2-guanidine]",IC50,[3],0.02 µg/mL
same,IC50,[4],0.27 µg/mL
"CCOC(=O)NC(=S)Nc1nncs1 [Preparation 1, [(1,3,4-Thiadiazol-2-ylamino)thioxomethyl]carbamic acid, ethyl ester]","RA (relative activity index from P, percent of maximum survival index)",[2],4.5
same,IC50,[12],43 µg/mL
same,IC50,[4],> 50 µg/mL
"NC(=S)Nc1nncs1 [Preparation 2, 1,3,4-Thiadiazol-2-ylthiourea]",number of animals surviving over number tested (S/N),[18]; 15 mg/kg/day,5/15
same,number of animals surviving over number tested (S/N),[18]; 30 mg/kg/day,5/16
same,number of animals surviving over number tested (S/N),[18]; 60 mg/kg/day,12/18
same,number of animals surviving over number tested (S/N),[18]; 120 mg/kg/day,14/18
same,number of animals surviving over number tested (S/N),[19]; 15 mg/kg/day,5/18
same,number of animals surviving over number tested (S/N),[19]; 30 mg/kg/day,8/18
same,number of animals surviving over number tested (S/N),[19]; 60 mg/kg/day,12/18
same,number of animals surviving over number tested (S/N),[19]; 120 mg/kg/day,16/18
same,number of animals surviving over number tested (S/N),[20]; 60 mg/kg/day,20/20
same,number of animals surviving over number tested (S/N),[20]; 120 mg/kg/day,20/20
same,number of animals surviving over number tested (S/N),[21]; 15 mg/kg/day,11/18
same,number of animals surviving over number tested (S/N),[21]; 30 mg/kg/day,16/18
same,number of animals surviving over number tested (S/N),[21]; 60 mg/kg/day,17/18
same,number of animals surviving over number tested (S/N),[21]; 120 mg/kg/day,18/18
same,number of animals surviving over number tested (S/N),[22]; 60 mg/kg/day,10/20
same,number of animals surviving over number tested (S/N),[22]; 120 mg/kg/day,16/20
same,number of animals surviving over number tested (S/N),[23]; 60 mg/kg/day,19/20
same,number of animals surviving over number tested (S/N),[23]; 120 mg/kg/day,20/20
same,number of animals surviving over number tested (S/N),[24]; 15 mg/kg/day,4/18
same,number of animals surviving over number tested (S/N),[24]; 30 mg/kg/day,15/18
same,number of animals surviving over number tested (S/N),[24]; 60 mg/kg/day,18/18
same,number of animals surviving over number tested (S/N),[24]; 120 mg/kg/day,18/18
same,IC50,[12],3.6 µg/mL
same,IC50,[3],> 50 µg/mL
same,IC50,[4],7 µg/mL
same,in vitro activity against Vesicular Stomatitus Virus,[17],displays in vitro activity
"O=C(NC(=S)Nc1nncs1)Oc1ccccc1 [Preparation 3, [(1,3,4-Thiadiazol-2-ylamino)thioxomethyl]carbamic acid, phenyl ester]","RA (relative activity index from P, percent of maximum survival index)",[2],5 (80-100% = 5 (very active))
same,IC50,[12],< 1.6 µg/mL
"CCCCCCOC(=O)NC(=S)Nc1nncs1 [Preparation 4, [(1,3,4-Thiadiazol-2-ylamino)thioxomethyl]carbamic acid, n-hexyl ester]","RA (relative activity index from P, percent of maximum survival index)",[2],5 (80-100% = 5 (very active))
"COC(=O)NC(=S)Nc1nncs1 [Preparation 5, [(1,3,4-thiadiazol-2-ylamino)thioxomethyl]carbamic acid, methyl ester]","RA (relative activity index from P, percent of maximum survival index)",[2],5 (80-100% = 5 (very active))
"C=COC(=O)NC(=S)Nc1nncs1 [Preparation 6, [(1,3,4-thiadiazol-2-ylamino)thioxomethyl]carbamic acid, vinyl ester]","RA (relative activity index from P, percent of maximum survival index)",[2],4 (60-80% = 4 (good activity))
"CCOC(=O)N=C(Nc1nncs1)SC [Preparation 7, [(Methylthio)(1,3,4-thiadiazol-2-ylamino)methyl]carbamic acid, ethyl ester]","RA (relative activity index from P, percent of maximum survival index)",[2],5 (80-100% = 5 (very active))
same,IC50,[12],75.5 µg/mL
CCOC(=O)N=C(Nc1nncs1)SCC [Preparation 8],"RA (relative activity index from P, percent of maximum survival index)",[2],5 (80-100% = 5 (very active))
same,IC50,[12],> 50 µg/mL
